We go through six compounds from article PMC7239764 (The FEBS journal, 2019).

For assay [1], the target named is T1, BaPDH (prephenate dehydrogenase from Bacillus anthracis) (Bacillus anthracis, UniProt Q81P63). In words: biochemical. In kind it is biochemical. The note with it: for Km: 25°C, pH 7.5.
The target in assay [2] is AaPDH (prephenate dehydrogenase from Aquifex aeolicus). The note with it: cited from earlier work.
Assay [3] has as its target arogenate dehydrogenase from cyanobacteria Synechocystis sp. The settings on record: cited from earlier work.
In assay [4] the target is T1, BaPDH (prephenate dehydrogenase from Bacillus anthracis). The assay is described as follows: biochemical. It counts as binding.
For assay [5] the target is unchanged. In kind it is binding.

Several values for one entry are separate records, joined by “and”; a condition that tells them apart may be missing. Equal values may be shown once. Read-outs that look alike come from different tables or passages of the source.

T1 sequence (Q81P63 1-378): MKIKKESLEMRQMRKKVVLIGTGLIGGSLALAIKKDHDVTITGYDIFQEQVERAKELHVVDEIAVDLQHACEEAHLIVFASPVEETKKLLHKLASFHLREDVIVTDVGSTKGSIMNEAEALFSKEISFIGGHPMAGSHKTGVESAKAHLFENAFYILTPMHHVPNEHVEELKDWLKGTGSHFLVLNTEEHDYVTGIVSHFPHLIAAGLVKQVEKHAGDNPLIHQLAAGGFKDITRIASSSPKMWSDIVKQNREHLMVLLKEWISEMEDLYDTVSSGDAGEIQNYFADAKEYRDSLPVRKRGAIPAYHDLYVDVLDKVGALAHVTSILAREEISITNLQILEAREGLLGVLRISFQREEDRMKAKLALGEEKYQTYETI

What is called Km is the concentration of substrate that gives half-maximal velocity. As to `O=C(O)C(=O)CC1(C(=O)O)C=CC(O)C=C1` (stereo not shown) [prephenate], the Michaelis-Menten constant (Km) in assay [1] is 58 ± 9 µM.
A word on the Ki: it is a dissociation constant, usually derived from enzyme kinetics or from competition with a known ligand. In general, Kd refers to a measure of binding affinity in units of concentration. High values mean weaker binding, low ones tighter binding. Turning to `N[C@@H](Cc1ccc(O)cc1)C(=O)O` [Tyrosine, L-tyrosine], the inhibition constant Ki in assay [2] is 15900 ± 1300 nM; in assay [3] it was 70000 nM; in assay [1], 1470 ± 70 nM. Besides, the “Binding sites per protein dimer (N)” value in assay [4] was 1.002 ± 0.001 and 0.928 ± 0.003. In addition, the Kd in assay [4] (Kd) was 640 nM and 370 nM. Also, the Tm in assay [5] was determined as 51 ± 1 °C. Moreover, the mode of inhibition result in assay [1] is given as “non-competitive inhibition”.
Regarding `NC(=O)c1ccc[n+]([C@@H]2O[C@H](COP(=O)([O-])OP(=O)(O)OC[C@H]3O[C@@H](n4cnc5c(N)ncnc54)[C@H](OP(=O)(O)O)[C@@H]3O)[C@@H](O)[C@H]2O)c1` [NADP^+], the equilibrium dissociation constant (Kd) entry in assay [4] was “No detectable binding”. For the same compound, in assay [5], the “Increase in Tm with the addition of the ligand(s)” value (shortened to “Increase in Tm with the addition”) is “do not significantly change and ns”; the Tm came out at 41 ± 1 °C.
In the case of `NC(=O)C1=CN([C@@H]2O[C@H](COP(=O)(O)OP(=O)(O)OC[C@H]3O[C@@H](n4cnc5c(N)ncnc54)[C@H](O)[C@@H]3O)[C@@H](O)[C@H]2O)C=CC1` [NADH], in assay [5], the “Increase in Tm with the addition” value is “do not significantly change and ns”; the Tm was determined as 43 ± 2 °C.
For `NC(=O)C1=CN([C@@H]2O[C@H](COP(=O)(O)OP(=O)(O)OC[C@H]3O[C@@H](n4cnc5c(N)ncnc54)[C@H](OP(=O)(O)O)[C@@H]3O)[C@@H](O)[C@H]2O)C=CC1` [NADPH], in assay [5], the “Increase in Tm with the addition” value was “do not significantly change and ns”; the Tm was 40 ± 1 °C.
As for `NC(=O)c1ccc[n+]([C@@H]2O[C@H](COP(=O)([O-])OP(=O)(O)OC[C@H]3O[C@@H](n4cnc5c(N)ncnc54)[C@H](O)[C@@H]3O)[C@@H](O)[C@H]2O)c1` [NAD^+], in assay [4], the “Binding sites per protein dimer (N)” value turned out to be 0.90 ± 0.01. Besides, in assay [5], the “Increase in Tm with the addition” value is “does not impart a significant change and ns”; the Tm was 41 ± 1 °C. In assay [1], the Km was 237 ± 44 µM.
